The conditions of series [1]: cited from earlier work. The source says: (§1) Anticoagulants are standard therapy for venous thromboembolism and arterial thrombosis-mediated disorders, particularly in acute settings.
The next series relates to thrombin. The following applies: cited from earlier work.
From the text: as §1

The conditions of series [2]: venom of Eresus niger; cited from earlier work. The source says: Studies have focused on the use of venom peptides for anticoagulation therapy. […] These peptides typically target key components of the coagulation cascade with high specificity, potency, and selectivity.
A further series concerns mouse tail bleeding. Kind of series: Tail bleeding time. It is filed as in vivo, C57BL/6J mice. The following applies: heparin sodium 1000 U/kg i.v., 10 min after administration; n = 6; vehicle 89.8 s. The procedure: The C57BL/6J mice (male, 6–8 weeks old) were purchased from Beijing Vital River Laboratory Animal Technology Co., Ltd. (Beijing, China). All animal studies were performed under the approval of the Ethics Committee of the Laboratory Animal Welfare of the Kunming Institute of Zoology, Chinese Academy of Sciences (IACUC-RE-2025-03-010).
The mouse tail-bleeding assay was performed to evaluate the bleeding risk associated with GC38 treatment. Male C57BL/6J mice (6–8 weeks, n = 6 per group) were randomized to receive intravenous injection of PBS (negative control), GC38 (2 or 4 mg/kg in PBS), or heparin sodium (1000 U/kg, positive control). The assay was conducted 10 min after administration. Mice were anesthetized, and a 2 mm segment of the tail tip was surgically transected using a sterile scalpel. Immediately after the incision, the tail was immersed in prewarmed PBS (37 °C) to facilitate blood flow. Bleeding time was recorded from the moment of the incision until the complete cessation of bleeding (no blood flow for 60 s).

The conditions of series [3]: ref Diapharma Group (supplier named); enzyme not given; cited from earlier work. The source says:
Human Activated Protein C (APC-1.0) was purchased from Enzyme Research Laboratories, Inc., South Bend, IN, USA. […] Activated Partial Thromboplastin Time (APTT) Test Kit (TC0306) was bought from Senkey Biotechnology Co., Ltd., Kunming, China. Prothrombin Time (PT) Test Kit (GMS10176) was purchased from GENMED Scientifics Inc., Shanghai, China. Streptavidin (SA) Biosensors (18-5019) were obtained from Sartorius AG, Göttingen, Lower Sa ...

Series [4] has as its target Human Activated Protein C (human) (UniProt P04070).

Read-outs that look alike come from different tables or passages of the source. Bridge positions count the residues as written; N and C are the ends. Square brackets hold non-standard residues; d marks the D form. Ends that are not written are not given here. * marks the point of attachment. pNA = O=[N+]([O-])c1ccc(N*)cc1; pGlu = O=C1CC[C@@H](C(=O)O)N1

As for hirudin, in series [1] (heparin-induced thrombocytopenia (HIT) management), the bleeding risk result was “lower bleeding risk than conventional therapies”. Besides, the thrombin inhibition entry in the series on thrombin is on record as “thrombin inhibitor”.

On to heparin, for which the bleeding risk result in series [1] (clinical) is “significant bleeding risks”.

In the case of phospholipase A2, the anticoagulant activity entry in series [2] is on record as “anticoagulant activity”.

Regarding heparin sodium [reference compound], in the series with mouse tail bleeding, the tail bleeding time is on record as 127.6 s.

Regarding “bivalirudin: Another synthetic peptide, bivalirudin”, the major bleeding events result in series [1] (percutaneous coronary intervention (PCI), compared to heparin) is recorded as “reduction in major bleeding events compared to heparin”.

“[pGlu]-Pro-Arg-pNA [S-2366, Chromogenix substrate S-2366]”: in series [3], the Km (as a rule, the substrate concentration at which the rate is half of its maximum) was 200 µM and the catalytic constant (kcat) (usually the maximal rate divided by the concentration of active sites) was 190 s⁻¹.

B1: GC38 (peptide)
peptide: GCSGKGARCAPSKCCSGLSCGRHGGNMYKSCEWNWKTG
modifications: disulfide 14-31, 2-15, 9-20
Consider B1, for which the APC enzymatic activity at Vmax on chromogenic substrate S-2366 (APC 0.7145 μM, S-2366 402.1 μM), GC38 0.1 to 10 μM, concentration-dependent; highest value at 10 μM in series [4] was 171%.

The record behind these values is article PMC12564639, “Discovery of a Novel Anticoagulant Cystine Knot Peptide from Spider Venom Gland Transcriptome” (International Journal of Molecular Sciences, 2025).
